{
  "source": "patent US12365680B2",
  "about": "“Polymorphs of the hydrochloride salt of linaprazan glurate” (Cinclus Pharma Holding AB (Publ), priority 2021, dated 2025)",
  "key": {"[1]": {"assay": "Solubility of free base and HCl salt in media simulating gastric fluid (FaSSGF, FeDSGA)", "format": "physicochemical", "details": "after 1 hour", "description": "For solubility studies, HPLC was performed using an Agilent 1100 series Liquid Chromatography system, equipped with DAD spectrometer. Analyses were performed using a Waters X Bridge BEH C18 column (4.6×100 mm, 2.5 μm) at 30° C. Mobile phase: A=0.1% formic acid in water, B=0.1% formic acid in acetonitrile. Flow rate 0.8 mL/min. Mobile phase program:\nThe solubility of the crystalline free base (Form A) and the crystalline HCl salt of linaprazan glurate (mixture of Forms 1 and 2) was studied in Fasted State Simulated Gastric Fluid (FaSSGF, Biorelevant, batch FFF-0119-B; pH 1.6) and Fed State Gastric Acid (FeDSGA, Biorelevant, batch FEDGAS-120-A; pH 5.0).\nSaturated solutions were prepared in 4 mL vials by adding a fixed weight of the crystalline base or the crystalline HCl salt to 2 mL of each of the different buffer solutions. Vials were sonicated for 10 minutes and then stirred with a magnetic stirrer on a water bath (37° C.) for 24 hours. Samples were taken after 1, 4 and 24 hours, in replicates, and analysed by HPLC-UV. Concentrations were calculated from a calibration curve, constructed using 8 calibration standards (serial dilutions of stock solutions of the free base and the HCl salt of linaprazan glurate)."}, "[2]": {"details": "Phase I and II studies; cited from earlier work"}, "[3]": {"system": "intragastric acidity", "assay": "Clinical Phase I study of linaprazan glurate, intragastric pH", "format": "in vivo", "details": "human, plasma, oral; after 22 hours; to maintain intra-gastric pH above 4 for 24 hours; read-out: minimal plasma concentration (Cmin) of linaprazan required"}, "[4]": {"assay": "Dynamic vapour sorption (DVS) hygroscopicity", "format": "physicochemical", "description": "Analyses were performed on an SMS DVS-1 instrument. A few mg of the substance was added into an Al pan and exposed to stepwise RH changes during two identical consecutive cycles according to 0-10-20-30-40-50-60-70-80-90-80-70-60-50-40-30-20-10-0% RH using open loop mode. The experiments were performed using a gas flow rate of 200 mL/min and at 25° C. The dm/dt criteria applied was 0.001 weight-%/min during a 5-minutes window, with a maximum allowed time of 360 minutes and a minimum allowed time of 10 minutes for all steps.\nThe hygroscopicity of Form 1 (obtained by crystallisation from DMF using EtOAc as the anti-solvent) and Form 2 (obtained from a slurry in MeOH) was investigated using DVS at 25° C. […] With a water uptake of 0.2% at 90% RH, Form 1 can be classified as non-hygroscopic.\nThe water uptake is rapid when the relative humidity is increased, and the water loss is equally rapid when the relative humidity is decreased. The sorption behaviour is typical for a channel hydrate, where the crystal structure adapts to accommodate different amounts of water depending on the surrounding humidity. The water uptake of 4.7% at 90% RH corresponds to 1.3 water molecules per linaprazan glurate HCl unit."}, "[5]": {"assay": "Pharmacokinetics of linaprazan glurate after absorption", "details": "in vivo"}, "[6]": {"details": "cited from earlier work"}},
  "note": "Entries after “also recorded” stand apart in the source; their conditions may differ. Where a name gives a salt, the structure may show the parent alone.",
  "data": [
    {"compound": "Cc1cccc(C)c1CNc1cc(C(=O)NCCOC(=O)CCCC(=O)O)cn2c(C)c(C)nc12", "note": "[HCl salt]", "values": [
      {"measurement": "solubility of the HCl salt relative to the free base", "setting": "[1]; FeDSGA pH 5.0, 37° C.", "result": "more than 6.5 times"}
    ]},
    {"compound": "Cc1cccc(C)c1CNc1cc(C(=O)NCCO)cn2c(C)c(C)nc12", "note": "[linaprazan]", "values": [
      {"measurement": "elimination", "setting": "[2]", "result": "quickly eliminated from the body"},
      {"measurement": "onset of action and effect", "setting": "[2]", "result": "fast onset of action and full effect at first dose"},
      {"measurement": "tolerability", "setting": "[2]", "result": "well tolerated"},
      {"measurement": "concentration at 22 h", "setting": "[3]", "result": "≥ 240", "unit": "nM"}
    ]},
    {"compound": "Cc1cccc(C)c1CNc1cc(C(=O)NCCOC(=O)CCCC(=O)O)cn2c(C)c(C)nc12", "note": "[Form 2]", "values": [
      {"measurement": "hygroscopicity (in words)", "setting": "[4]; DVS at 25° C.", "result": "significant uptake of water at elevated humidities"},
      {"measurement": "water uptake", "setting": "[4]; DVS at 25° C., 90% RH", "result": 4.7, "unit": "%"},
      {"measurement": "water molecules per linaprazan glurate HCl unit", "setting": "[4]; corresponds to water uptake at 90% RH", "result": 1.3}
    ]},
    {"compound": "Cc1cccc(C)c1CNc1cc(C(=O)NCCOC(=O)CCCC(=O)O)cn2c(C)c(C)nc12", "note": "[linaprazan glurate, 5-{2-[({8-[(2,6-dimethylbenzyl)amino]-2,3-dimethylimidazo[1,2-a]pyridine-6-yl}carbonyl)-amino]ethoxy}-5-oxopentanoic acid]", "values": [
      {"measurement": "half-life in the body compared to linaprazan", "setting": "[5]", "result": "longer half-life"},
      {"measurement": "metabolism following absorption into the blood stream", "setting": "[5]", "result": "quickly metabolized into linaprazan"},
      {"measurement": "plasma concentration", "setting": "[5]", "result": "only very low and difficult to determine"}
    ]},
    {"compound": "Cc1cccc(C)c1CNc1cc(C(=O)NCCOC(=O)CCCC(=O)O)cn2c(C)c(C)nc12", "note": "[Form 1]", "values": [
      {"measurement": "hygroscopicity (in words)", "setting": "[4]; DVS at 25° C.", "result": "non-hygroscopic; also recorded: very low hygroscopicity"}
    ]},
    {"compound": "Cc1cccc(C)c1CNc1cc(C(=O)NCCOC(=O)CCCC(=O)O)cn2c(C)c(C)nc12", "note": "[free base]", "values": [
      {"measurement": "solubility at pH 1", "setting": "[6]; pH 1", "result": "only slightly soluble"},
      {"measurement": "solubility in water at pH 6.8", "setting": "[6]; pH 6.8", "result": "practically insoluble"},
      {"measurement": "solubility of the free base relative to the HCl salt", "setting": "[1]; FaSSGF pH 1.6, 37° C.", "result": "about 1.4 times"}
    ]}
  ]
}
